The values that follow come from ChEMBL document CHEMBL1201862, “PubChem BioAssay data set” (2004).

Among the test systems are MDA-MB-435; MDA-N; SK-MEL-2; SK-MEL-5; BT-549; MCF7; SF-539; A498; SN12C; HL-60; HCC 2998; COLO 205; LOX IMVI; SNB-75; SR; SNB-19; OVCAR-5; U-251; NCI-H23.
Holding throughout (assay): DTP human tumour cell line panel, 48 h

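Test compounds were applied to cells in 96-well plates for 48 hours at 5 doses. GI50 = concentration required for 50% inhibition of growth.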 Active and inactive are the calls of the source. Cut-off read from the data, not from the text of the source: active = GI50 up to about 1.1 µM and inactive = higher. Where only a bound is given, the exact number is not on record here.

As usually defined, the GI50 is the concentration that inhibits growth by half. As to `Cc1ccc([C@H]2CC(=O)C[C@H](c3ccc(C)cc3)C23C(=O)c2ccccc2C3=O)cc1`, the GI50 was 41.3 µM (inactive) in the assay with MDA-MB-435; 52.8 µM (inactive) in the assay on MDA-N; 31.2 µM (inactive) in the assay with SK-MEL-2; 34.4 µM (inactive) in the assay on SK-MEL-5; 34.3 µM (inactive) with BT-549; 17 µM (inactive) in the assay with MCF7. Besides, the GI50 in the assay with SF-539 was 32.4 µM (inactive); with A498, > 100 µM (inactive); in the assay with SN12C, 48.4 µM (inactive); in the assay on HL-60 it was 11 µM (inactive); with HCC 2998, 57.3 µM (inactive); in the assay with COLO 205, 37.2 µM (inactive). The GI50 is 9.98 µM (inactive) in the assay with LOX IMVI; 15.8 µM (inactive) with SNB-75; 13.2 µM (inactive) with SR; 26.9 µM (inactive) with SNB-19; > 100 µM (inactive) in the assay on OVCAR-5; 16.7 µM (inactive) in the assay on U-251. The GI50 in the assay with NCI-H23 is > 100 µM (inactive).

Regarding `COC(=O)NCCc1n[nH]c2c1C(=O)C=C(Nc1ccccc1)C2=O`, the GI50 in the assay with MDA-MB-435 is 17 µM (inactive); in the assay with MDA-N it was 17.9 µM (inactive); in the assay on SK-MEL-2, 20.6 µM (inactive); in the assay with SK-MEL-5, 17.9 µM (inactive); with BT-549 it was 23.4 µM (inactive); in the assay with MCF7, 15.5 µM (inactive). Also, the GI50 was 20.7 µM (inactive) in the assay with SF-539; 47.2 µM (inactive) in the assay with A498; 34.8 µM (inactive) in the assay on SN12C; 19.2 µM (inactive) in the assay with HL-60; 38.2 µM (inactive) with HCC 2998; 16.8 µM (inactive) with COLO 205. For the same compound, the GI50 is 15.5 µM (inactive) with LOX IMVI; 57.3 µM (inactive) in the assay on SNB-75; 10.9 µM (inactive) in the assay with SR; 28 µM (inactive) with SNB-19; 29 µM (inactive) in the assay with OVCAR-5; 15.2 µM (inactive) in the assay on U-251. Moreover, in the assay on NCI-H23, the GI50 is 15.1 µM (inactive).

On to `Cc1nc2c(Br)cc(Br)cc2c(=O)n1-c1ccccc1N`, for which the GI50 was 39.4 µM (inactive) with MDA-MB-435; 50.9 µM (inactive) with MDA-N; 19.2 µM (inactive) in the assay with SK-MEL-2; 18.3 µM (inactive) with SK-MEL-5; 27.5 µM (inactive) in the assay with BT-549; 38.9 µM (inactive) in the assay on MCF7. Also, the GI50 is 35.2 µM (inactive) in the assay with SF-539; 36.9 µM (inactive) with A498; 29.9 µM (inactive) in the assay on SN12C; 19.9 µM (inactive) in the assay on HL-60; 35.6 µM (inactive) in the assay with HCC 2998; 20.7 µM (inactive) in the assay on COLO 205. Further, the GI50 in the assay with LOX IMVI is 27.5 µM (inactive); in the assay on SNB-75, 22.9 µM (inactive); in the assay with SR it was 37 µM (inactive); in the assay with SNB-19, 48.2 µM (inactive); in the assay on OVCAR-5, 28.8 µM (inactive).

For the compound `COc1cc2cc(C(=O)N3CC(COS(C)(=O)=O)c4c3cc(N)c3ccccc43)[nH]c2c(OC)c1OC` (configuration not stated), the GI50 in the assay on MDA-MB-435 is 0.0152 µM (active); with MDA-N, 0.0195 µM (active); in the assay with SK-MEL-2, 0.0716 µM (active); in the assay on SK-MEL-5, < 0.01 µM (active); in the assay on BT-549, 0.0187 µM (active); in the assay with MCF7, < 0.0122 µM (active). Further, the GI50 in the assay on SF-539 was 0.0177 µM (active); in the assay with A498, 0.0219 µM (active); in the assay on SN12C it was 0.0221 µM (active); with HL-60 it was < 0.01 µM (active); in the assay with HCC 2998, 0.0148 µM (active); in the assay with COLO 205, 0.0244 µM (active). For the same compound, the GI50 in the assay on LOX IMVI was 0.0172 µM (active); in the assay on SNB-75 it was < 0.01 µM (active); with SR, < 0.01 µM (active); with SNB-19 it was < 0.0491 µM (active); in the assay with OVCAR-5, 0.021 µM (active); with U-251, 0.0141 µM (active). Moreover, the GI50 with NCI-H23 was < 0.0179 µM (active).

As to `CCc1n[nH]c(=O)n1N1C(=O)CCC1=O`, the GI50 in the assay with MDA-MB-435, in the assay with MDA-N, in the assay on SK-MEL-2, in the assay on SK-MEL-5, in the assay on BT-549 and in the assay on MCF7 was > 100 µM (inactive) each time. In addition, the GI50 with A498, with SN12C, in the assay on HCC 2998, with COLO 205, in the assay on LOX IMVI and with SNB-75 was > 100 µM (inactive) each time. The GI50 with SR, in the assay on SNB-19, in the assay with OVCAR-5 and in the assay on U-251 was > 100 µM (inactive) throughout.

As to `COC(=O)C1(C#N)C(C)(C)N=C(c2ccccc2)C12CCCCC2` (configuration not stated), the GI50 with MDA-MB-435, in the assay on MDA-N, with SK-MEL-2, with SK-MEL-5, in the assay on BT-549 and in the assay on MCF7 was > 100 µM (inactive) each time. Moreover, the GI50 is > 100 µM (inactive) in the assay with SF-539; > 100 µM (inactive) in the assay on A498; > 100 µM (inactive) in the assay with SN12C; 45.4 µM (inactive) in the assay on HL-60; > 100 µM (inactive) in the assay on HCC 2998; > 100 µM (inactive) in the assay on COLO 205. Further, the GI50 with LOX IMVI is > 100 µM (inactive); in the assay with SR it was 14.7 µM (inactive); with SNB-19, > 100 µM (inactive); in the assay on OVCAR-5, > 100 µM (inactive); with U-251 it was > 100 µM (inactive); with NCI-H23, > 100 µM (inactive).

As for `CCOC(=O)C(C(=O)OCC)=C1SC(=N\c2ccccc2)/C(=N/c2ccccc2)N1c1ccccc1`, the GI50 was > 100 µM (inactive) in the assay on MDA-MB-435; > 100 µM (inactive) in the assay on MDA-N; > 100 µM (inactive) with SK-MEL-2; 52.1 µM (inactive) with SK-MEL-5; > 100 µM (inactive) in the assay on BT-549; 75.3 µM (inactive) in the assay with MCF7. Besides, the GI50 was > 100 µM (inactive) with SF-539; > 100 µM (inactive) in the assay with A498; > 100 µM (inactive) in the assay on SN12C; > 100 µM (inactive) with HL-60; 45.8 µM (inactive) in the assay on HCC 2998; > 100 µM (inactive) with COLO 205. Further, the GI50 in the assay with SNB-75, in the assay with SR, with SNB-19, with OVCAR-5, in the assay with U-251 and in the assay with NCI-H23 was > 100 µM (inactive) each time.

For the compound `CCOC(=O)c1c(N2CCOCC2)[nH]c(=O)c(C(c2cccs2)c2c(O)c(C(=O)OCC)c(N3CCOCC3)[nH]c2=O)c1O`, the GI50 in the assay with MDA-MB-435, with MDA-N, in the assay on SK-MEL-2, in the assay on SK-MEL-5, in the assay on BT-549 and with MCF7 was > 100 µM (inactive) in each case. Further, the GI50 in the assay on SF-539, with A498, with SN12C, in the assay on HCC 2998, in the assay on COLO 205 and in the assay on LOX IMVI was > 100 µM (inactive) in each case. The GI50 in the assay on SNB-75, with SR, in the assay on SNB-19, with OVCAR-5, in the assay on U-251 and in the assay with NCI-H23 was > 100 µM (inactive) in each case.

Consider `CC(=O)Oc1ccc(/C=C/C(=O)O[C@H]2CCCC[C@@H]2OC(=O)/C=C/c2ccc(OC(C)=O)c(OC(C)=O)c2)cc1OC(C)=O`, for which the GI50 in the assay on MDA-MB-435 is 10.4 µM (inactive); with MDA-N it was 8.97 µM (inactive); in the assay on SK-MEL-2 it was 15.3 µM (inactive); with SK-MEL-5, 4.69 µM (inactive); in the assay on BT-549, 13.2 µM (inactive); with MCF7, 13.8 µM (inactive). The GI50 in the assay with SF-539 was 6.38 µM (inactive); with A498, 18.5 µM (inactive); with SN12C, 9.23 µM (inactive); with HCC 2998, 13.8 µM (inactive); in the assay with COLO 205, 16.7 µM (inactive); in the assay on LOX IMVI it was 2.49 µM (inactive). Moreover, the GI50 is 9.46 µM (inactive) in the assay on SNB-75; 4.34 µM (inactive) in the assay on SR; 4.71 µM (inactive) in the assay on SNB-19; 12.3 µM (inactive) with OVCAR-5; 9.25 µM (inactive) in the assay with U-251; 8.75 µM (inactive) in the assay on NCI-H23.

For the compound `COC(=O)/C=C\C(C#N)(C#N)/N=C/c1sccc1C`, the GI50 with MDA-MB-435 was 3.58 µM (inactive); in the assay with MDA-N, 3.59 µM (inactive); in the assay with SK-MEL-2, 15.8 µM (inactive); in the assay with SK-MEL-5, 1.55 µM (inactive); in the assay with BT-549, 3.15 µM (inactive); with MCF7, 1.56 µM (inactive). The GI50 is 14.8 µM (inactive) with A498; 8.59 µM (inactive) with SN12C; 1.88 µM (inactive) with HL-60; 15.2 µM (inactive) with HCC 2998; 1.22 µM (inactive) in the assay on COLO 205; 1.3 µM (inactive) in the assay with LOX IMVI. The GI50 with SNB-75 was 14.8 µM (inactive); in the assay with SR, 2.36 µM (inactive); in the assay on SNB-19 it was 17.3 µM (inactive); with OVCAR-5, 5.26 µM (inactive); in the assay with U-251, 10 µM (inactive); in the assay with NCI-H23 it was 7.03 µM (inactive).

Regarding `CCOC(=O)C(=CN1CCNC1=S)C(=O)OCC`, the GI50 in the assay on MDA-MB-435, in the assay with MDA-N, in the assay on SK-MEL-2, with SK-MEL-5, in the assay with BT-549 and in the assay with MCF7 was > 100 µM (inactive) each time. In addition, the GI50 in the assay with SF-539 was > 100 µM (inactive); in the assay on A498, 18.2 µM (inactive); in the assay on SN12C, > 100 µM (inactive); with HL-60 it was > 100 µM (inactive); in the assay on HCC 2998 it was > 100 µM (inactive); in the assay with COLO 205 it was > 100 µM (inactive). Moreover, the GI50 in the assay with LOX IMVI, in the assay with SR, in the assay on OVCAR-5, with U-251 and in the assay on NCI-H23 was > 100 µM (inactive) each time.
